Measurements reported in paper PMC8936486 (PLoS Biology, 2022).

Tests used:
SaFtsZf [1] = biological target: T1, SaFtsZf (Staphylococcus aureus, UniProt P0A029); assay: light scattering of polymer assembly; type: biochemical; settings: 10 mM MgCl2, pH 6.5, 25 °C
T1 construct: gene ftsZ
T1 sequence (P0A029 1-390): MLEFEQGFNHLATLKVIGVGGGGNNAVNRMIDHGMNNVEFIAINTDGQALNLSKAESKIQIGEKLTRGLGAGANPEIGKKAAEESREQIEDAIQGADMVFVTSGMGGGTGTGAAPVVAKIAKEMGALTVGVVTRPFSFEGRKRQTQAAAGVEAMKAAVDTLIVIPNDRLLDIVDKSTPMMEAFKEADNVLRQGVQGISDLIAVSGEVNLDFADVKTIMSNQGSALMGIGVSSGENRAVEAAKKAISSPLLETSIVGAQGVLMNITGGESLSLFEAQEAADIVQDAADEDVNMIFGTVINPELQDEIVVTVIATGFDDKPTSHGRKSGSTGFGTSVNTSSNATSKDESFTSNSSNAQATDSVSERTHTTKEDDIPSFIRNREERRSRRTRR

MjFtsZ = biological target: T2, MjFtsZ (Methanocaldococcus jannaschii, UniProt Q57816); assay: light scattering of polymer assembly; type: biochemical; settings: 5 mM BeF3- with GTP, 55 °C; stabilizes polymers, repolymerization after disassembly
T2 construct: gene ftsZ1; full-length, nucleotide-devoid (apo)

SaFtsZf [2] = biological target: T1, SaFtsZf; assay: electron microscopy of polymers; type: biochemical; settings: MES assembly buffer, 25 °C
[3] = biological target: the molecule itself; assay: right angle light scattering; self-assembly of full-length FtsZ with 1 mM GTP and MgCl2 in MES assembly buffer; SaFtsZf 49 uM and EcFtsZ 25 uM at 25 C, apo-MjFtsZ 15 uM at 55 C; SaFtsZf polymers also seen by electron microscopy

In the case of Nc1nc2c(ncn2[C@@H]2O[C@H](COP(=O)(O)OP(=O)(O)OP(=O)(O)O)[C@@H](O)[C@H]2O)c(=O)[nH]1 [GTP], the “light scattering of polymer assembly” value (SaFtsZf [1]; 1 mM GTP) is reported as “The sample with GTP depolymerized upon nucleotide consumption (blue line)”.

[F][Be-]([F])[F] [BeF3^−] was tested, and the “light scattering of polymer assembly” value (MjFtsZ) was “Repolymerization with BeF3^− after disassembly was observed for MjFtsZ” and the “light scattering of polymer assembly” value (SaFtsZf [1]; 1-5 mM BeF3- with 1 mM GTP, stabilizes polymers) was “Assembly of full-length SaFtsZ is stabilized by BeF3^−”.

With Nc1nc2c(ncn2[C@@H]2O[C@H](COP(=O)(O)CP(=O)(O)OP(=O)(O)O)[C@@H](O)[C@H]2O)c(=O)[nH]1 [GMPCPP, guanosine-5′-[(α,β)-methyleno]triphosphate] the “electron microscopy of polymers” value (SaFtsZf [2]) was “Polymers formed with GMPCPP”.

B1: full-length FtsZ from S. aureus (natural protein, Staphylococcus aureus Mu50/ATCC 700699, UniProt P0A029 1-390, looked up)
chain: T1 sequence (P0A029 1-390)
notes: full-length FtsZ from methicillin-resistant S. aureus Mu50/ATCC 700699; also called SaFtsZf; full-length SaFtsZ
B1: binds [3].

B2: full-length FtsZ from E. coli (natural protein, Escherichia coli, UniProt P0A9A6 1-383, looked up)
chain: MFEPMELTNDAVIKVIGVGGGGGNAVEHMVRERIEGVEFFAVNTDAQALRKTAVGQTIQIGSGITKGLGAGANPEVGRNAADEDRDALRAALEGADMVFIAAGMGGGTGTGAAPVVAEVAKDLGILTVAVVTKPFNFEGKKRMAFAEQGITELSKHVDSLITIPNDKLLKVLGRGISLLDAFGAANDVLKGAVQGIAELITRPGLMNVDFADVRTVMSEMGYAMMGSGVASGEDRAEEAAEMAISSPLLEDIDLSGARGVLVNITAGFDLRLDEFETVGNTIRAFASDNATVVIGTSLDPDMNDELRVTVVATGIGMDKRPEITLVTNKQVQQPVMDRYQQHGMAPLTQEQKPVAKVVNDNAPQTAKEPDYLDIPAFLRKQAD
notes: full-length FtsZ from Escherichia coli, wild-type protein; also called EcFtsZ; Escherichia coli FtsZ; source: purified as described [54]
B2: binds [3].

B3: nucleotide-devoid, full-length FtsZ from M. jannaschii (natural protein, Methanocaldococcus jannaschii, UniProt Q57816 1-364, looked up)
chain: MKFLKNVLEEGSKLEEFNELELSPEDKELLEYLQQTKAKITVVGCGGAGNNTITRLKMEGIEGAKTVAINTDAQQLIRTKADKKILIGKKLTRGLGAGGNPKIGEEAAKESAEEIKAAIQDSDMVFITCGLGGGTGTGSAPVVAEISKKIGALTVAVVTLPFVMEGKVRMKNAMEGLERLKQHTDTLVVIPNEKLFEIVPNMPLKLAFKVADEVLINAVKGLVELITKDGLINVDFADVKAVMNNGGLAMIGIGESDSEKRAKEAVSMALNSPLLDVDIDGATGALIHVMGPEDLTLEEAREVVATVSSRLDPNATIIWGATIDENLENTVRVLLVITGVQSRIEFTDTGLKRKKLELTGIPKI
notes: full-length FtsZ from Methanocaldococcus jannaschii, nucleotide-devoid; also called apo-MjFtsZ; MjFtsZ; source: prepared as reported [55]
B3: binds [3].
